In ChEMBL document CHEMBL1201862, “PubChem BioAssay data set” (2004):
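Assay format: 96-well plates, 48-hour exposure. GI50 is the concentration that inhibits growth by half.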 Activity calls are given as the source filed them. Cut-off read from the data, not from the text of the source: active = GI50 up to about 1.1 µM and inactive = higher.

Legend:
Assay in all cases: DTP human tumour cell line panel, 48 h
A549 = test system: A549
SNB-19 = test system: SNB-19
LOX IMVI = test system: LOX IMVI
SW-620 = test system: SW-620
OVCAR-3 = test system: OVCAR-3
SN12C = test system: SN12C
U-251 = test system: U-251
DMS-114 = test system: DMS-114
HT-29 = test system: HT-29
ACHN = test system: ACHN
OVCAR-5 = test system: OVCAR-5
CAKI-1 = test system: CAKI-1
RPMI-8226 = test system: RPMI-8226
Malme-3M = test system: Malme-3M
SNB-78 = test system: SNB-78
KM12 = test system: KM12
TK-10 = test system: TK-10
NCI-H23 = test system: NCI-H23
COLO 205 = test system: COLO 205
MOLT-4 = test system: MOLT-4
SK-MEL-2 = test system: SK-MEL-2
HOP-92 = test system: HOP-92
CCRF-CEM = test system: CCRF-CEM
RXF 393 = test system: RXF 393
SK-MEL-5 = test system: SK-MEL-5
NCI-H460 = test system: NCI-H460
OVCAR-8 = test system: OVCAR-8
SF-268 = test system: SF-268
HOP-62 = test system: HOP-62
HOP-18 = test system: HOP-18
SF-539 = test system: SF-539
DLD-1 = test system: DLD-1
K562 = test system: K562
UO-31 = test system: UO-31
NCI-H522 = test system: NCI-H522
DMS-273 = test system: DMS-273
A498 = test system: A498
786-0 = test system: 786-0
SK-MEL-28 = test system: SK-MEL-28
NCI-H226 = test system: NCI-H226
SK-OV-3 = test system: SK-OV-3
KM-20L2 = test system: KM-20L2
UACC-257 = test system: UACC-257
EKVX = test system: EKVX
SNB-75 = test system: SNB-75
LXFL 529 = test system: LXFL 529
HL-60 = test system: HL-60
HCT-15 = test system: HCT-15
HCT-116 = test system: HCT-116
HCC 2998 = test system: HCC 2998
M14 = test system: M14
OVCAR-4 = test system: OVCAR-4
RXF 631 = test system: RXF 631
MCF7 = test system: MCF7
IGROV-1 = test system: IGROV-1
DU-145 = test system: DU-145
MDA-MB-435 = test system: MDA-MB-435
UACC-62 = test system: UACC-62
NCI/ADR-RES = test system: NCI/ADR-RES
Hs-578T = test system: Hs-578T
MDA-N = test system: MDA-N
T47D = test system: T47D
SF-295 = test system: SF-295
MDA-MB-231 = test system: MDA-MB-231
BT-549 = test system: BT-549
PC-3 = test system: PC-3
SR = test system: SR

Measured: GI50

Cc1ccccc1NC(=O)C(=O)C(C(=O)c1ccccc1F)C1OC(=O)c2ccccc21 (centres undefined)
inactive: A549 42200 nM | SNB-19 10100 nM | LOX IMVI 16000 nM | SW-620 34900 nM | OVCAR-3 24600 nM | SN12C 25000 nM | U-251 7530 nM | DMS-114 10200 nM | HT-29 40300 nM | ACHN 43700 nM | OVCAR-5 41800 nM | CAKI-1 21100 nM | RPMI-8226 11900 nM | Malme-3M 18800 nM | SNB-78 13300 nM | KM12 23000 nM | TK-10 43000 nM | NCI-H23 10300 nM | COLO 205 21300 nM | MOLT-4 9590 nM | SK-MEL-2 24700 nM | HOP-92 33300 nM | CCRF-CEM 10600 nM | RXF 393 8530 nM | SK-MEL-5 22400 nM | NCI-H460 32900 nM | OVCAR-8 > 10000 nM | SF-268 18900 nM | HOP-62 17300 nM | HOP-18 23400 nM | SF-539 8320 nM | DLD-1 22200 nM | K562 24300 nM | UO-31 15800 nM | NCI-H522 5680 nM | DMS-273 23300 nM | A498 45800 nM | 786-0 16300 nM | SK-MEL-28 16500 nM | NCI-H226 3380 nM | SK-OV-3 34100 nM | KM-20L2 38300 nM | UACC-257 21100 nM | EKVX 96600 nM | SNB-75 8390 nM | LXFL 529 13400 nM | HL-60 16300 nM | HCT-116 15000 nM | HCC 2998 11500 nM | M14 16600 nM | OVCAR-4 18400 nM | RXF 631 26900 nM
24500 nM: HCT-15

CCCCCCN(CCCCCC)C(=S)N/N=C(\C)c1ccccn1
581 nM: HCT-15
inactive: MCF7 1530 nM | A549 1520 nM | SNB-19 1310 nM | DU-145 1280 nM | HT-29 1510 nM | OVCAR-5 1630 nM | Malme-3M 1340 nM | NCI/ADR-RES 1370 nM | NCI-H23 1240 nM | MDA-N 1320 nM | HOP-62 1210 nM | DLD-1 1260 nM | SF-295 1530 nM | MDA-MB-231 1150 nM | DMS-273 1630 nM | A498 1860 nM | SK-OV-3 1400 nM | BT-549 1680 nM | UACC-257 1600 nM | HCC 2998 1610 nM
active: IGROV-1 955 nM | LOX IMVI 838 nM | SW-620 718 nM | OVCAR-3 506 nM | SN12C 957 nM | U-251 393 nM | MDA-MB-435 708 nM | DMS-114 571 nM | ACHN 703 nM | UACC-62 1000 nM | CAKI-1 836 nM | RPMI-8226 117 nM | SNB-78 711 nM | KM12 1050 nM | TK-10 993 nM | COLO 205 321 nM | MOLT-4 179 nM | SK-MEL-2 1060 nM | HOP-92 906 nM | Hs-578T 1090 nM | CCRF-CEM 161 nM | RXF 393 973 nM | SK-MEL-5 1030 nM | NCI-H460 1090 nM | T47D 269 nM | OVCAR-8 815 nM | SF-268 345 nM | SF-539 1090 nM | K562 105 nM | UO-31 344 nM | NCI-H522 527 nM | 786-0 971 nM | SK-MEL-28 1040 nM | NCI-H226 622 nM | KM-20L2 673 nM | EKVX 531 nM | SNB-75 577 nM | LXFL 529 208 nM | HL-60 76.7 nM | HCT-116 1090 nM | M14 760 nM | PC-3 265 nM | SR 436 nM | OVCAR-4 457 nM | RXF 631 1020 nM
